Legend:
[1] = tested on: Rat pulmonary epithelial cell cultures (L2); assay: Paraquat-induced injury of L2 cells, LDH release; format: cell-based; conditions: 100 μM; Paraquat 2.5 mM, 48 hours
[2] = tested on: Calf pulmonary endothelial cell (CPA-47) line; assay: Glucose oxidase hydrogen peroxide injury of CPA-47, Cr^51 release; format: cell-based; conditions: glucose oxidase 100 Mu/ml, 4 hours; 1 hour pretreatment
Procedure: (§1) Calf pulmonary endothelial cell (CPA-47) line was grown to near confluence in 12-well plates with F-12K medium containing 10% fetal calf serum. CPA-47 cells were loaded with Cr^51 as previously described by Simon et al J. Clin. Invest. 78:1375 (1986) in high glucose minimum essential medium (DMEM). Cells were pretreated with MnTBAP (100 μM) for 1 hour and then exposed to various concentrations of hydrogen peroxide generator, glucose oxidase, for 4 hours. Cell injury was then quantitated as the specific Cr^51 release from CPA-47 cells which has been adjusted for spontaneous Cr51 release.
as §1, with “(J.” for “J.”, “(1986))” for “(1986)”, “various concentrations of either: (A) MnTBAP; (B) MnTMPyP; (C) ZnTBAP; or (D) CuZnSOD” for “MnTBAP (100 μM)”, “the” for “various concentrations of”, “oxidase (100 Mu/ml),” for “oxidase,”, “Cr^51” for “Cr51”

[3] = SOD activity (McCord and Fridovich); format: biochemical; conditions: In vitro Biochemistry
Procedure: SOD activity can be monitored in the presence and absence of EDTA using the method of McCord and Fridovich (J. Biol. Chem. 244:6049 (1969)). The efficacy of a mimetic can be determined by measuring the effect of the mimetic on the growth of a SOD null E. coli strain versus a wild type strain. Specifically, wild type E. coli (AB1157) and SOD null E. coli. (JI132) can be grown in M9 medium containing 0.2% casamino acids and 0.2% glucose at pH 7.0 and 37° C.; growth can be monitored in terms of turbidity followed at 700 nm spectrophotometrically. Active mimetics can be tested for toxicity in mammalian cell culture by measuring lactate dehydrogenase (LDH) release. Specifically, rat L2 cells (a lung Type II like cell; (Kaighn and Douglas, J. Cell Biol. 59:106a (1973)) can be grown in Ham's F-12 medium with 10% fetal calf serum supplement at pH 7.4 and 37° C.; cells can be seeded at equal densities in 24 well culture dishes and grown to approximately 90% confluence; SOD mimetics can be added to the cells at log doses (eg micromolar doses in minimal essential medium (MEM)) and incubated for 24 hours. Toxicity can be assessed by morphology and by measuring the release of the cytosolic injury marker, LDH (eg on a thermokinetic plate reader), as described by Vassault (In: Methods of Enzymatic Analysis, Bergmeyer (ed) pp. 118-26 (1983); oxidation of NADH is measured at 340 nm). Efficacy of active mimetics can be assessed by determining their ability to protect mammalian cells against methylviologen (paraquat)-induced toxicity. Specifically, rat L2 cells grown as described above and seeded into 24 well dishes can be pre-incubated with various concentrations of the SOD mimetic and then incubated with a concentration of methylviologen previously shown to produce an LC75 in control L2 cells. Efficacy of the mimetic can be correlated with a decrease in the methylviologen-induced LDH release (St. Clair et al, FEBS Lett. 293:199 (1991)). The efficacy of SOD mimetics can be tested in vivo with mouse and/or rat models using both aerosol administration and parenteral injection. For example, male Balb/c mice can be randomized into 4 groups of 8 mice each to form a standard 2×2 contingency statistical model. Animals can be treated with either paraquat (40 mg/kg, ip) or saline and treated with SOD mimetic or vehicle control. Lung injury can be assessed 48 hours after paraquat treatment by analysis of bronchoalveolar lavage fluid (BALF) damage parameters (LDH, protein and % PMN) as previously described (Hampson et al, Tox. Appl. Pharm. 98:206 (1989); Day et al, J. Pharm. Methods 24:1 (1990)). […]
^2SOD activity determined as described by McCord and Fridovich, J. Biol. Chem. […] (1969).

[4] = Catalase activity, Clark oxygen electrode; format: biochemical; conditions: 1 mM hydrogen peroxide; oxygen formation over 2 minutes
Description: Catalase activity can be monitored by measuring absorbance at 240 nm in the presence of hydrogen peroxide (see Beers and Sizer, J. Biol. Chem. 195:133 (1952)) or by measuring oxygen evolution with a Clark oxygen electrode (Del Rio et al, Anal. Biochem. 80:409 (1977)). Peroxidase activity can be measured spectrophotometrically as previously described by Putter and Becker: Peroxidases. In: Methods of Enzymatic Analysis, H. U. Bergmeyer (ed.), Verlag Chemie, Weinheim, pp. 286-292 (1983. Aconitase activity can be measured as described in Example XI below.
Catalase activity was measured by means of a Clark oxygen electrode using a modified assay previously described by Del Rio et al, Anal. Biochem. 80:409 (1977). Briefly, reactions were performed in a nitrogen degassed phosphate buffer (50 mM, pH 7.8) containing 0.1 mM EDTA at 25° C. Three concentrations of hydrogen peroxide (1-4 mM) and four metalloporphyrin concentrations (0.5-50 μM) were used to determine second order rate constants. The rate of oxygen evolution was followed for 2 minutes.
^3Catalase activity determined as described by Del Rio et al, Anal. Biochem. 80:409 )1977). Metalloporphyrins were assayed at various concentrations in the presence of 1 mM hydrogen peroxide for catalase-like activity. A Clark electrode was used to measure the formation of oxygen from the breakdown of hydrogen peroxide over a period of 2 minutes.

[5] = tested on: rat cortical cells; assay: Neurotoxicity (LDH release) in cortical cell culture; format: cell-based
Procedure: (§2) Tissue culture: Mixed neuronal and glial cultures were prepared from embryonic day-18 rat cerebral cortices (Sprague-Dawley, Zivic Miller). Briefly, the cerebral cortices were dissected and enzymatically dissociated by incubation in Ca^++-, Mg^++-free Hank's balanced salt solution (HBSS) supplemented with 10 mM HEPES and 0.25% trypsin for 20 min. at 37° C. The tissue was rinsed and dispersed into single cell suspension by gentle passage through a fire polished Pasteur pipette. The cell suspension was centrifuged and resuspended in Minimum Essential Media (MEM), containing Earle's salts supplemented with 3 g/L glucose, 5% horse serum and 5% fetal bovine serum (growth media). The cells were plated in poly-D-lysine-coated multi-well plates: 12-well plates for aconitase measurement, and 24 well plates for toxicity experiments. Cells were maintained at 37° C. in a humidified incubator with 5% CO2/95% air in growth media. Media was not replaced so as to reduce glial overgrowth and neuronal loss. Mature cells (14-17 days in vitro) were used for all experiments.
(§3) Cell treatment: The growth media was replaced with MEM supplemented with 25 mM glucose (MEM-g). For both neurotoxicity studies and aconitase measurement, cells were incubated in the designated treatment for the indicated length of time at 37° C. Unless otherwise specified, antagonists or SOD-mimetics were added 15 min. prior to agonists. For measurement of neurotoxicity, cells were incubated with treatments for 18 hr at 37° C. in MEM-g. To access the ability of antagonists to inhibit acute NMDA toxicity or rescue cells from an ongoing NMDA insult, an alternate paradigm of NMDA treatment was used in addition to the one describe above. In this paradigm, growth media was replaced with HBSS^+ (Ca^++-, Mg^++-free Hank's Balanced Salt Solution supplemented with 2 mM CaCl2, 1 mM NaHCO3, 10 mM HEPES and 5 μM glycine), cells were treated with vehicle or 100 μM NMDA for 15 min. after which HBSS^+ was replaced with MEM-g and cells were returned to the incubator for 18 additional hrs. Antagonsists or SOD-mimetics were added to the cells 15 min. before NMDA exposure or 15, 30 or 60 min. following final media replacement. For determination of Ca^++-dependence, cells were incubated in HBSS^+ with no added Ca^++. When kainate (KA) was used as an agonist, 100 μM D-APV was routinely included to block secondary NMDA receptor activation. Catalase (100 U/ml) was always included when xanthine plus xanthine oxidase (X+XO) was used as a treatment to rule out the contribution of hydrogen peroxide.
Neurotoxicity studies: Neurotoxicity was determined by the measurement of LDH released in the supernatant media as previously described (Patel et al, Toxicol. Appl. Pharmacol. 115:124 (1991) and Neurotoxicology 14:35 (1992)). LDH was measured by the method of Vassault, Lactate dehydrogenase. In: Methods of Enzymatic Analysis, Bergmeyer HU (ed), Verlag Chemie, Weinheim, pp. 118-126 (1983). Additionally, cell death was confirmed with ethidium-1 homodimer (EthD-1). Briefly, the cells were washed with HBSS, loaded with 20 μM EthD-1 for 30 min,. rinsed and viewed through fluorescence optics. The number of dead cells labeled with EthD-1 were counted in 4-6 randomly selected fields, the numbers averaged to give an estimate of cell death and the experiment was repeated 3 times.

[6] = tested on: aconitase; assay: Aconitase activity in cortical cell lysates; format: cell-based, rat; conditions: 1 mM NOS inhibitor
Procedure: as §2, §3
Aconitase measurement: For the measurement of aconitase, following treatment with agents, media was removed and cells lysed in ice-cold 50 mM, Tris/HCl, pH 7.4 containing 0.6 mM MnCl2, 1 mM L-cysteine, 1 mM citrate and 0.5% Triton-X 100. The aconitase activity of cell lysates was measured spectrophotometrically by monitoring the formation of cis-aconitate from isocitrate at 240 nm in 50 mM Tris/HCl, pH 7.4, containing 0.6 mM MnCl2 and 20 mM isocitrate at 25° C. (Kreb and Holzach, Biochem. J. 52:527 (1952); Gardner and Fridovich, J. Biol. Chem. 267:8757 (1992)). […] Aconitase activity in cortical cell lysates was inhibited by 0.1 mM potassium ferricyanide or by boiling of sample.

[7] = tested on: J774 macrophages; assay: Mitochondrial respiration (MTT) in J774 macrophages; format: cell-based; conditions: LPS-treated and LPS and IFN-treated cells, 24 h
Procedure: (§4) Cell culture: J774 macrophages were cultured in DMEM medium, supplemented with L-glutamine (3.5 mmol/L) and 10% fetal calf serum. Cells were cultured in 96-well plates (200 μl medium/well) until confluence. To induce the inducible isoform of nitric oxide synthase (iNOS), fresh culture medium containing E. coli LPS (011:B4, 10 μg/ml) alone or in combination with murine γ-interferon (γ-IFN, 10 U/ml) was added in the presence or absence of the NOS inhibitor, the SOD mimetic of the combination of the two compounds for 24 h. Moreover, cells were exposed to the NO donor compounds S-nitroso-N-acetyl-DL-penicillamine (SNAP) (3 mM) and diethylamine:NO NONOate (DNO) (3 mM) for 24 h or to authentic peroxynitrite (1 mM) for 1 h). Nitride/nitrate concentration in the medium and mitochondrial respiration were then measured as described below.
Measurement of mitochondrial respiration: Cell respiration was assessed by the mitochondrial-dependent reduction of 3-(4,5-dimethylthiazol-2-yl)-2,5-diphenyltetrazolium bromide (MTT) to formazan. Cells in 96-well plates were incubated at 37° C. with MTT (0.2 mg/ml) for 1 hour. Culture medium was removed by aspiration and the cells were solubilized in DMSO (100 μl). The extent of reduction of MTT to formazan within cells was quantitated by the measurement of OD550. All measurements were corrected for the interference of MnTBAP at this wavelength.

[8] = tested on: J774 macrophages; assay: Nitrite/nitrate production in J774 macrophages; format: cell-based
Procedure: as §4
Measurement of nitrite/nitrate production: Nitride/nitrate production, an indicator of NO synthesis, was measured in the supernatant. First, nitrate in the culture medium was reduced to nitrite by incubation with nitrate reductase (670 mU/ml) and NADPH (160 μM) at room temperature for 2 h. After 2 h, nitrite concentration in the samples were measured by the Griess reaction, by adding 100 μl of Griess reagent (1% sulfanilamide and 0.1% naphthylethylenediamide in 5% phosphoric acid) to 100 μl samples of conditioned medium. The optical density at 550 nm (OD550) was measured using a Spectramax 250 microplate reader (Molecular Devices, Sunnyvale, Calif.) Nitrate concentrations were calculated by comparison with OD550 of standard solutions of sodium nitrate prepared in culture medium. All measurements were corrected for the interference of MnTBAP at this wavelength.

For C[n+]1ccc(-c2c3nc(c(-c4cc[n+](C)cc4)c4ccc([n-]4)c(-c4cc[n+](C)cc4)c4nc(c(-c5cc[n+](C)cc5)c5ccc2[n-]5)C=C4)C=C3)cc1.[Mn+3] [MnTMPyP, Mn(III) tetrakis (1-methy-4-pyridyl)porphyrin], the “paraquat-induced LDH release” value [1] was “decrease paraquat-induced LDH release” and the “hydrogen peroxide-induced endothelial cell injury” value [2] was “reduction”.
With “Trimethyl 2,2′,2″, 2′″-tetrahydroxy-4-benzoic acid-4″, 4″, 4′″ (porphine -5,10,15,20-tetrayl)tribenzoate manganese (III) chloride [Compound 10303]” the SOD [3] was 78 μg/USOD, the Catalase [4] was 1.4 min⁻¹ and the “protection against NMDA-induced excitotoxicity” value ([5]; NMDA 50 μM, 25 μM compound) was 100%. For the same compound, the “protection against kainate-induced excitotoxicity” value ([5]; kainate 300 μM, 100 μM compound) was 100%.
With “Tetra (N,N-dimethyl) 4,4′,4″,4′″-(porphine-5,10,15,20-tetrayl)-tetrakis(benzamide) manganese (III) chloride [Compound 10109]” the SOD [3] was 470 μg/USOD and the Catalase [4] was 0.59 min⁻¹.
With “3,3′3″,3′″-Tetramethoxy-4,4′,4″,4′″-(porphine-5,10,15,20-tetrayl)tetrakis (benzoic acid) [Compound 10305]” the SOD [3] was “inactive” and the Catalase [4] was 2.2 min⁻¹.
For CNC(=N)NCCC[C@H](N)C(=O)O [L-NMA, N^G-methyl-L-arginine, reference compound], the “NMDA-induced LDH release” value ([5]; 1 mM NOS inhibitor) was “unchanged”, the NMDA-induced aconitase inactivation [6] was “unchanged” and the “immunostimulation-induced suppression of mitochondrial respiration” value [7] was “restoration of the respiration to an extent comparable with that of 300 μM MnTBAP”. For the same compound, the “change of inhibition of nitrite/nitrate accumulation when applied 6 h after LPS” value ([8]; LPS-stimulated macrophages) was “similar” and the “inhibition of the production of NO” value ([8]; cells stimulated with LPS or LPS and IFN) was “near-complete inhibition”.

Reference: patent US6583132B1, “Oxidant scavengers” (Duke University, priority 1993, dated 2003)
